Laboratory results taken from patent US20230389545A1, “ANTIMICROBIAL COMPOSITION” (The Procter & Gamble Company, priority 2022, published 2023).

How the values were obtained:
Gram Negative = assay: Surface Antimicrobial Kill Testing Method, activity normalized to triclosan internal standard; type: cell-based; details: for antimicrobial activity (in words, comment on Table 1B): composition with nonionic surfactant and non-aqueous solvent; for antimicrobial benefit (in words, comment on Table 2B): DPGME / Surfonic L24-9 composition
Description: Inoculum is prepared by streaking microorganism onto a Tryptic Soy Agar (TSA) plate and incubating for 24 h at 33° C. Plated bacteria is resuspended in saline until the transmittance percentage falls within the accepted range for ˜10^8 cfu/mL. For K. pneumonia (Kp) and P. aeruginosa (Pa), this is 31.00-33.00% T. For S. aureus (Sa) this is 23.00-25.00% T. A 10× concentration is made by spinning down the prepared inoculum, removing the supernatant saline from the bacterial pellet, then resuspending the pellet in 1/10th of the original volume of saline. The final inoculum is prepared with 5% of “soil” in the form of Fetal Bovine Serum (FBS).
A 18×18 mm sterile glass coverslip is placed into an appropriate container (e.g. petri dish). 20 μL of prepared inoculum is added to the glass coverslip. Inoculum is then air-dried for 30 minutes in a 36° C. incubator. After drying, 40 μL of test sample is added on top of the dried inoculum. This is incubated at room temperature for the desired contact time. 5 mL of neutralizing media (Modified Letheen Broth+Tween+Lecithin (MLBTL)) is added to the coverslip and shaken on an orbital shaker for 5 minutes to ensure proper neutralization and extraction. Viability is then assessed of the neutralized and extracted sample by traditional/alternative microbiological techniques.
The normalized antimicrobial activity reported in the performance examples below was generated from detection time data obtained as described in the Surface Antimicrobial Kill Test Method. To account for day-to-day variability an internal standard was tested with each series. […] Normalized activity is reported following the equation 1 below.
Normalized Activity=(αΔDT−βΔDT)/(γΔDT−βΔDT) equation 1.
where, αΔDT is the average detection time of the antimicrobial compound, and γΔDT is the average detection time of the reference triclosan internal standard, and βΔDT is the average detection time of the background unperturbed bacteria.
Modified amino acids of the present disclosure were tested as aqueous solutions in the Surface Antimicrobial Kill Testing Method above. To prepare test solutions modified amino acids were first dissolved in the appropriate solvent. Second the selected surfactant is added to the mixture. After vortex (1 min, Vortex-2 Genie, vortex speed 8) mixing, the samples were then diluted with […] of reverse osmosis water (RO water, Millipore Direct-Q™, pH 6). The aqueous solution was then vortexed (1 min, Vortex-2 Genie, vortex speed 8), to which the second ½ portion of water is added. The pH of the solution was then adjusted to the target pH using either 1N HCl, Glacial Acetic Acid, or 1N NaOH. The final solution was then vortexed (1 min, Vortex-2 Genie, vortex speed 8). An example batch sheet is provided below in Table 1.
After treatment, microbial growth is referenced and reported to a triclosan sample and unaltered microbes according to the Normalization of Antimicrobial Activity provided above.

[1] = Stability of the isolated solid followed by 1H NMR; type: physicochemical; details: storage

Row | Compound | antimicrobial activity (in words, comment on Table 1B) (Gram Negative) | stability of the independent solid by 1H NMR [1] | antimicrobial benefit (in words, comment on Table 2B) (Gram Negative) | antimicrobial efficacy versus pH (in words, comment on Table 3) (Gram Negative; composition pH of about 2 to less than about pH 9) | microbial activity with surfactants (in words, comment on Table 4) (Gram Negative; with non-ionic and amphoteric surfactants, isotropic solutions)
1 | CC(C)(C)OC(=O)[C@@H](N)Cc1c[nH]c2ccccc12 [Synthetic Example 1, L-tryptophan tert-butyl ester] | proved to be antimicrobial | stable for several months | – | – | –
2 | CCCCCCCCOC(=O)[C@@H](N)Cc1c[nH]c2ccccc12 [Synthetic Example 3] | highest antimicrobial activity | stable for several months | – | – | –
3 | CCCCCCCCCCCCOC(=O)[C@@H](N)Cc1c[nH]c2ccccc12 [Synthetic Example 4] | – | stable for several months | – | – | –
4 | CCCCCCCCOC(=O)[C@@H](N)Cc1ccc(O)cc1 [Synthetic Example 5] | – | stable for several months | antimicrobial benefit over the solvent/surfactant alone and over Comparative Example C2 | improved antimicrobial efficacy | improved microbial activity over the aqueous solution of the modified amino acid alone
5 | CC/C=C\CCCCCOC(=O)[C@@H](N)Cc1ccc(O)cc1 [Synthetic Example 6] | – | stable for several months | antimicrobial benefit over the solvent/surfactant alone and over Comparative Example C2 | – | –
6 | CCCCCC(CCC)COC(=O)[C@@H](N)Cc1ccc(O)cc1 (stereo partly shown) [Synthetic Example 7] | – | stable for several months | antimicrobial benefit over the solvent/surfactant alone and over Comparative Example C2 | – | –
